Entries after “also recorded” stand apart in the source; their conditions may differ.
Tests used:
[1] = system: splenocytes from BALB/c mice; test: In vitro proliferation assay of splenocytes (3H-thymidine uptake); format: cell-based, mouse; conditions: for mitogenic activity of rTcPA45 in cultures supplemented with substrate: 50 μg/ml rTcPA45, increasing amounts of L- or D-proline, 3 mM to 50 mM; for cell proliferation with substrate alone: 50 mM L- or D-proline alone; for mitogenic activity of rTcPA45 pre-incubated with inhibitor: 50 μg/ml rTcPA45 pre-incubated 10 min at 37° C. with 1 mM inhibitor; for 3H-thymidine uptake: after 48 h, ConA 10 μg/ml, LPS 5 μg/ml, 5×10^4 cells/well
Description: Briefly, freshly recovered splenocytes from 8 week old male Balb/c mice seeded at a concentration of 5×10^4 cells/well were incubated for 24, 48 and 72 h in 5% FCS RPMI-1640 medium. A 16 h ^3H-thymidine pulse at 1 μCi/well was performed before harvesting. ^3H-Thymidine uptake was determined in a beta-plate liquid scintillation counter (LKB-Wallac). All points were done in triplicate and the corresponding standard deviation calculated. For comparison, ^3H-thymidine uptake after 48 h in the presence of ConA (10 μg/ml) and LPS (5 μg/ml) was 32000 c.p.m. and 3500 c.p.m., respectively. T-cell depletion was performed by incubating freshly recovered spleen cells for 30 min at 37° C. in the presence of anti-Thy 1.2 monoclonal antibody (Cedarlane) and rabbit complement (Cedarlane). In order to rule out a possible mitogenic effect due to LPS contamination in samples, proliferation assays were also performed on freshly recovered splenocytes from the LPS non-responder mouse strain C3H/Hej. Same levels of proliferation were verified. Balb/c mice were purchased from Charles River, France. C3H/Hej mice were maintained in our animal facilities.
In vitro proliferation is accomplished using freshly recovered splenocytes from BALB/c mice seeded at a density of 5×10^4 cells/well and incubated for 24, 48 and 72 h with increasing concentrations of total parasite supernatants or recombinant TcPa45 protein or other mitogen (0.07-200 μg/ml) with 0.5 μg/ml of the HPLC fractions, or with the conventionally used mitogens concanavalin A (10 μg/ml) and lipopolysaccharide (5 μg/ml) in 5% FCS in RPMI-1640 complete medium. T-cell depletion is accomplished by incubating freshly recovered spleen cells for 30 min. at 37° C. in the presence of monoclonal antibodies against Thy 1.2 and rabbit complement (Cedarlane, Le Perray en Yvelines, France). Analysis of proliferative activity of total splenocytes (5×10^4 cells/well) in the presence of 50 μg/ml enzymatically active rTcPA45 or other mitogen is also compared with the proliferation obtained using the same amounts of rTcPA45 protein or other mitogen lacking racemase activity (by heating for 10 min. at 30° C. or by long term storage at 4° C.). Inhibition of proliferation is obtained by adding to the splenocyte cultures 50 μg/ml rTcPA45 or other mitogen pre-incubated for 10 min. at 37° C. with 1 mM inhibitor, either specific (pyrrole-2-carboxylic acid) or nonspecific (iodoacetamide or iodoacetate). Competitive assays of proliferative activity by 50 μg/ml rTcPA45 or other mitogen are done by adding increasing concentrations of specific substrates i.e., proline racemase substrates (L- or D-proline) for the mitogen rTcPA45 ranging from 3 mM to 50 mM. Controls include the incubation of splenocytes (5×10^4 cells/well) with substrate alone, i.e., 50 mM L- or D-proline in RPMI medium alone for prline racemase. Cultures are collected after a 16-hour pulse or 1 μCi/well ^3H-thymidine uptake was determined in a beta-plate liquid scintillation counter (LKB-Wallac, Orsay, France). All data points are obtained in triplicate and the corresponding standard deviation is calculated.
5×10^5 naive spleen cells/well (96 well plate) were stimulated in vitro with different doses of rTcPA45 (ranging in FIG. 4b from 0.8 to 200 μg/ml final) for 24, 48 and 72 h, at 37° C., 5% CO2. Cultures were pulsed with ^3H-Thymidine (1 μCi/well) for 16-18 h before harvesting. ^3H-thymidine incorporation was obtained after counting using a beta-plate. Results present arithmetic means of c.p.m. (counts/minute) from 6 wells/dose of rTcPA45 or wells containing medium alone (+/−SD of the means).

rTcPA45 proline racemase = molecular target: T1, rTcPA45 proline racemase (Trypanosoma cruzi, UniProt Q4DA80); format: biochemical; conditions: inhibitors 6 mM to 100 mM
T1 construct: 6xHis (C); made in house; host or cells: E. coli (pET28b(+))
T1 sequence (Q4DA80 30-423): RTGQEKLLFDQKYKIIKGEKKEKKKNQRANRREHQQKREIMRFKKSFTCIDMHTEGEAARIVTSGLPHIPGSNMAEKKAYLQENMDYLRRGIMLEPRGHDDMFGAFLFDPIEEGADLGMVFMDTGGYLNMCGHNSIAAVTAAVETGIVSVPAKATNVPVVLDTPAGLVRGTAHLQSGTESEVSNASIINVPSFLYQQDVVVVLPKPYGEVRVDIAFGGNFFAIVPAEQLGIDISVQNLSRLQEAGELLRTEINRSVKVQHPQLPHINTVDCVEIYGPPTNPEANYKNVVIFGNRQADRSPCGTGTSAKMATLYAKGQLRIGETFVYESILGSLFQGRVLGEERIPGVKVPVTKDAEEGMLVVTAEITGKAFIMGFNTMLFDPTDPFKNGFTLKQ
Description: To investigate the genomic organization and transcription of the Tc45 gene, Southern and Northern blot analyses were done. FIG. 4 depicts the results of characterization of rTcPA45 activities. FIG. 4, part a, is an 8% SDS-PAGE gel of rTcPA45 (Coomasie blue staining). Part b depicts the proliferative activity of total splenocytes (5×10^4 cells/well) in the presence of increasing concentrations of rTcPA45 (μg/ml). […] Reaction conditions were: 0.2 M Na-acetate/25 mM β-mercaptoethanol buffer, pH6, rTcPA45 (3 μg/ml), 30 min incubation at 37° C. in 500 μl. The reaction was stopped by incubating for 10 min at 80° C. […] Reactions were carried out for 30 min at 37° C. and stopped for 5 min at 80° C. All reagents and inhibitors were purchased from Sigma. The shift in optical rotation was measured in a Polarimeter 241 MC (Perkin Elmer).
A suitable test for testing an active molecule inhibiting the polypeptide according to the invention is performed as follows: • The recombinant amino acid purified or native racemase is diluted in sodium acetate buffer or Tris or phophate on Hepes buffer at 3 micrograms per 500 microliters in the presence of 20 millmolar of beta mercepto ethanol and 10 to 80 millimolar of L or D substrate and containing various concentrations of active molecule to be tested. This reaction is incubated for 30 minutes at 37° C. and stopped by heating at 80° C. Variations in optical rotation are measured by a polarimeter.
3 μg of rTcPA45 was diluted in 500 μl of buffer (0.2M NaOAc, 20 mM β-mercaptoethanol, pH6.0) containing different concentrations of the substrate (10-80 mM or L- or D-proline). (See FIG. 4c.) The reaction was incubated for 30-60 minutes at 37° C. in a water bath, followed by heat inactivation of the enzyme for 10 minutes at 80° C. Each sample is diluted to 1.5 ml with water and the mixture submitted to measurement of optical rotation using a polarimeter, at 365 nm. A sample without enzyme is used as a control. […]
The percent of racemization of different concentrations of L-proline, D-proline, L-hydroxy-proline and D-hydroxy-proline substrates was calculated by incubating a 500-μl mixture of 3 μg TcPA45 and 10-80 mM substrate in 0.2 M sodium acetate and 25 mM β-mercaptoethanol, pH 6, for 30 min at 37° C. […] Water (1 ml) was then added, and the optical rotation was measured in polarimeter 241 MC (Perkin Elmer, Montignyle Bretonneux, France) at a wavelength of 365 nm, in a cell with a path length of 10 cm. […] The percent racemization of 80 mM L-proline as a function of pH was determined using 0.2 M sodium acetate, potassium phosphate and Tris-HCl buffers containing 25 mM β-mercaptoethanol; reactions were incubated for 30 min at 37° C. as described above. […]

Compound: O=C(O)[C@H]1CCCN1 [D-proline]
- mitogenic activity of rTcPA45 in cultures supplemented with substrate [1]: affected considerably; also recorded: decrease
- cell proliferation with substrate alone [1]: no cell proliferation

Compound: O=C(O)[C@@H]1CCCN1 [L-proline]
- mitogenic activity of rTcPA45 in cultures supplemented with substrate [1]: affected considerably; also recorded: decrease
- cell proliferation with substrate alone [1]: no cell proliferation

Compound: NC(=O)CI [iodoacetamide]
- mitogenic activity of rTcPA45 pre-incubated with inhibitor [1]: abolished
- inhibition of rTcPA45 enzymatic activity (racemization of 80 mM L-proline) (rTcPA45 proline racemase): inhibited to different extents

Compound: O=C(O)CI [iodoacetate]
- mitogenic activity of rTcPA45 pre-incubated with inhibitor [1]: abolished
- inhibition of rTcPA45 enzymatic activity (racemization of 80 mM L-proline) (rTcPA45 proline racemase): inhibited to different extents

Compound: O=C(O)/C=C\C(=O)O [maleic acid]
- inhibition of rTcPA45 enzymatic activity (racemization of 80 mM L-proline) (rTcPA45 proline racemase): inhibited to different extents

Compound: O=C(O)c1ccc[nH]1 [pyrrole-2-carboxylic acid]
- mitogenic activity of rTcPA45 pre-incubated with inhibitor [1]: abolished
- inhibition of rTcPA45 enzymatic activity (racemization of 80 mM L-proline) (rTcPA45 proline racemase): inhibited to different extents

Compound: concanavalin A [ConA]
- 3H-thymidine uptake [1]: 32000 c.p.m.
- 3H-thymidine uptake ([1]; listed as concavalin A): 32,000 c.p.m.

Compound: lipopolysaccharide [LPS]
- 3H-thymidine uptake [1]: 3500 c.p.m.
- 3H-thymidine uptake ([1]; listed as lipopolysaccharide): 3,500 c.p.m.

Reference: patent US8168770B2, “Cloning, sequencing and expression of a gene encoding an eukaryotic amino acid racemase, and diagnostic, therapeutic, and vaccination applications of parasite and viral mitogens” (priority 1999, dated 2012)
